{"source": "patent US20210322545A1", "about": "(priority 2016, published 2021)", "key": {"[1]": {"test_system": "intracranial CT-2A tumors", "conditions": "mouse, in vivo"}, "EMT6, 4T1 or CT-2A cells": {"test_system": "EMT6, 4T1 or CT-2A cells", "conditions": "mouse, in vivo"}, "MPC-11 Fluc cells": {"test_system": "MPC-11 Fluc cells", "conditions": "mouse, in vivo"}, "CT-26 tumors": {"test_system": "CT-26 tumors", "conditions": "mouse, in vivo, sc"}, "cancer cells": {"test_system": "cancer cells", "format": "cell-based"}, "glioma cells": {"test_system": "glioma cells", "format": "cell-based"}, "[2]": {"conditions": "mouse, in vivo"}, "serum cytokines": {"test_system": "serum cytokines", "conditions": "mouse, in vivo", "procedure": "The detection of serum proteins following combinatorial SMC and anti-PD-1 treatment was analyzed by a flow cytometry-based multiplex kit (LEGENDplex inflammation panel from Biolegend)."}, "HT-29 tumors": {"test_system": "HT-29 tumors", "conditions": "mouse, in vivo"}, "VSVΔ51": {"test_system": "VSVΔ51", "format": "cell-based"}, "glioblastoma cells": {"test_system": "glioblastoma cells", "format": "cell-based"}, "[3]": {"test_system": "U266, MM1R and MM1S cells"}, "[4]": {"test_system": "intracranial CT-2A tumors", "conditions": "mouse, in vivo", "remark": "listed apart in the source"}, "SNB75 cells [5]": {"test_system": "SNB75 cells", "assay": "cells", "format": "cell-based", "conditions": "Homo sapiens, SNB-75, read-out: EC50 of SMC therapy"}, "MM cells": {"test_system": "MM cells", "format": "cell-based"}, "EMT6 mammary tumors": {"test_system": "EMT6 mammary tumors", "format": "in vivo, mouse"}, "CD8 T-cells": {"test_system": "CD8 T-cells", "format": "cell-based, mouse"}, "EMT6 cells [6]": {"test_system": "EMT6 cells", "assay": "cells", "format": "cell-based", "conditions": "Mus musculus, EMT6, read-out: EC50 of SMC therapy"}, "SNB75 cells [7]": {"test_system": "SNB75 cells", "format": "cell-based, human"}, "[8]": {"test_system": "intracranial GL261 tumors", "conditions": "mouse, in vivo"}, "EMT6 cells [9]": {"test_system": "EMT6 cells", "format": "cell-based, mouse"}, "[10]": {"test_system": "U266, MM1R and MM1S cells", "format": "cell-based, human"}, "[11]": {"test_system": "CT-2A and K1580 glioblastoma cells", "format": "cell-based, mouse"}, "TNF-α": {"test_system": "TNF-α", "conditions": "mouse, in vivo, ip"}, "[12]": {"conditions": "EMT6 tumors, 50 mg/kg LCL161 oral gavage"}}, "note": "“And” between values parts separate entries of the source, which are not always exact repeats. Equal values may be shown once. “Also recorded” adds a separate entry of the source. Read-outs that look alike come from different tables or passages of the source."}
{"compound": "CC[C@H](NC(=O)[C@H](C)NC)C(=O)N1C[C@@H](O)C[C@H]1Cc1c(-c2[nH]c3cc(F)ccc3c2C[C@@H]2C[C@H](O)CN2C(=O)[C@H](CC)NC(=O)[C@H](C)NC)[nH]c2cc(F)ccc12", "note": "[Birinapant]", "values": [{"measurement": "survival", "setting": "[1]; ip", "result": "significant increase in survival"}]}
{"compound": "CN[C@@H](C)C(=O)N[C@H](C(=O)N1CCC[C@H]1c1nc(C(=O)c2ccc(F)cc2)cs1)C1CCCCC1", "note": "[LCL161]", "values": [{"measurement": "tumor engraftment on rechallenge of cured mice", "setting": "EMT6, 4T1 or CT-2A cells", "result": "completely resistant to tumor engraftment"}, {"measurement": "tolerability, combination treatment", "setting": "MPC-11 Fluc cells", "result": "not well tolerated"}, {"measurement": "tumour burden (luminescence signal)", "setting": "MPC-11 Fluc cells", "result": "almost no tumour burden"}, {"measurement": "tumour burden, combination treatment", "setting": "MPC-11 Fluc cells", "result": "did not reduce tumour burden as effectively as VSVΔ51 alone"}, {"measurement": "tumor growth and survival, single agent", "setting": "CT-26 tumors", "result": "modest decrease of the tumor growth rate and a slight extension of survival"}, {"measurement": "cure rate", "setting": "[1]", "result": 50, "unit": "%"}, {"measurement": "cure rate upon depletion of CD4+ T-cells", "setting": "[1]", "result": 100, "unit": "%"}, {"measurement": "cure rate upon depletion of CD8+ T-cells", "setting": "[1]", "result": "completely abrogated"}, {"measurement": "durable cures", "setting": "[1]", "result": "86% and 55%"}, {"measurement": "effect of IFNAR1 blocking antibody on SMC + anti-PD1 survival synergy", "setting": "[1]", "result": "negated the synergistic effects"}, {"measurement": "effect of anti-IFN-γ antibody on SMC + ICI synergy", "setting": "[1]", "result": "partially inhibited the synergistic effects"}, {"measurement": "effect of systemic TNF-α blockade on SMC + ICI efficacy", "setting": "[1]", "result": "almost a complete reversal of the efficacy"}, {"measurement": "neurotoxicity", "setting": "[1]", "result": "did not result in any overt neurotoxicity"}, {"measurement": "physical or behavioral defects in long-term survivors", "setting": "[1]", "result": "no overt physical or behavioral defects"}, {"measurement": "expected survival rate", "setting": "[1]; po", "result": 86, "unit": "%"}, {"measurement": "cell death by UV-inactivated conditioned media of VSVΔ51-infected cells", "setting": "cancer cells", "result": "induced cell death only when the cells were co-treated with an SMC"}, {"measurement": "surface expression of PD-L1 and MHC I markers", "setting": "glioma cells", "result": "no significant impact"}, {"measurement": "tolerability", "setting": "[2]", "result": "well tolerated"}, {"measurement": "tolerability of combination therapies", "setting": "[2]", "result": "well tolerated"}, {"measurement": "body weight after a single treatment", "setting": "[2]; po, 50 mg/kg", "result": "minimal transient weight loss"}, {"measurement": "serum IFN-, IL-1-α, IL-1β, IL-17, IFN-γ, IL-27, GM-CSF", "setting": "serum cytokines", "result": "statistically significant increases"}, {"measurement": "effect on HT-29 tumors, monotherapy", "setting": "HT-29 tumors", "result": "neither monotherapy had any effect"}, {"measurement": "duration of cIAP1/2 knockdown in tumors", "setting": "cIAP1/2 and XIAP; [12]", "result": "at least 24 hrs"}, {"measurement": "duration of cIAP1/2 knockdown in tumors, in some cases (up to)", "setting": "cIAP1/2 and XIAP; [12]", "result": "48 to 72", "unit": "h"}, {"measurement": "IAP levels in intracranial CT-2A tumors", "setting": "cIAP1/2 and XIAP; direct intracranial injection, 10 μL of a 100 μM solution", "result": "potent down-regulation of both cIAP1/2 and XIAP proteins"}, {"measurement": "IAP levels in intracranial CT-2A tumors", "setting": "cIAP1/2 and XIAP; systemic SMC, several hours after drug administration, indicative of crossing the BBB", "result": "degradation of cIAP1/2 proteins"}, {"measurement": "effect of SMC treatment on growth kinetics of VSVΔ51", "setting": "VSVΔ51", "result": "does not affect the growth kinetics"}, {"measurement": "death of cultured and primary glioblastoma cell lines", "setting": "glioblastoma cells", "result": "killed"}, {"measurement": "sensitivity of CT-2A cells to combined SMC and recombinant IFN-α", "setting": "glioblastoma cells", "result": "partially sensitive"}, {"measurement": "PD-L1 expression", "setting": "[3]", "result": "Comparable upregulation"}, {"measurement": "CD4+ and CD25+ T-cells (Treg) in tumors", "setting": "[4]", "result": "significant decrease"}, {"measurement": "CD4+ cells expressing IFN-γ", "setting": "[4]", "result": "decrease in the proportion of CD4+ cells expressing IFN-γ"}, {"measurement": "CD8+ T-cells expressing PD-1 in tumors", "setting": "[4]", "result": "significant increase in CD8+ T-cells expressing PD-1"}, {"measurement": "CD3+ and CD3+ CD8+ cells expressing PD-1", "setting": "[4]; po, 75 mg/kg", "result": "robust increase"}, {"measurement": "EC50", "setting": "SNB75 cells [5]", "result": "> 2500", "unit": "nM"}, {"measurement": "cIAP1 and cIAP2 protein", "setting": "MM cells", "result": "rapid degradation of cIAP1 and cIAP2"}, {"measurement": "tumor response, oral SMC + BCG", "setting": "EMT6 mammary tumors; BCG intratumorally or intraperitoneally", "result": "significant tumor regression"}, {"measurement": "durable cure rate", "setting": "EMT6 mammary tumors; mouse, in vivo", "result": 75, "unit": "%"}, {"measurement": "durable cures of treated mice", "setting": "EMT6 mammary tumors; mouse, in vivo", "result": 88, "unit": "%"}, {"measurement": "tumor growth and survival, single agent", "setting": "EMT6 mammary tumors; mouse, in vivo", "result": "a decrease in the rate of tumor growth and a modest extension in survival; also recorded: slightly delayed EMT6 tumor growth rates and slightly extended the survival"}, {"measurement": "cure rate", "setting": "EMT6 mammary tumors; mouse, in vivo, ip", "result": 57, "unit": "%"}, {"measurement": "durable cures of treated mice", "setting": "EMT6 mammary tumors; mouse, in vivo, ip", "result": 60, "unit": "%"}, {"measurement": "CD8+ T-cells expressing TNF-α", "setting": "CD8 T-cells", "result": "significantly increased the proportion of CD8+ T-cells expressing TNF-α"}, {"measurement": "EC50", "setting": "EMT6 cells [6]", "result": "> 2500", "unit": "nM"}, {"measurement": "effect of SMC on induction of TRAIL and TNFα by IFNβ", "setting": "SNB75 cells [7]", "result": "potentiated the induction"}, {"measurement": "durable cure rate", "setting": "[8]", "result": 33, "unit": "%"}]}
{"compound": "CC(C)Cn1cnc2c(N)nc3ccccc3c21", "note": "[imiquimod]", "values": [{"measurement": "bystander death of SMC treated EMT6 cells", "setting": "EMT6 cells [9]", "result": "required splenocytes"}]}
{"compound": "IFNα", "values": [{"measurement": "neurotoxicity", "setting": "[1]", "result": "did not result in any overt neurotoxicity"}, {"measurement": "physical or behavioral defects in long-term survivors", "setting": "[1]", "result": "no overt physical or behavioral defects"}, {"measurement": "killing of MM cells with SMC", "setting": "[10]", "result": "very strong synergistic killing"}, {"measurement": "tumor growth and survival, single agent", "setting": "EMT6 mammary tumors; mouse, in vivo", "result": "no effect on EMT6 tumor growth or overall survival"}]}
{"compound": "poly(I:C)", "values": [{"measurement": "physical or behavioral defects in long-term survivors", "setting": "[1]", "result": "no overt physical or behavioral defects"}, {"measurement": "toxicity of intracranial administration", "setting": "[2]", "result": "without overt toxicities"}, {"measurement": "cell death by brain lysates of treated mice in the presence of SMCs", "setting": "[11]", "result": "enhanced cell death"}, {"measurement": "TNFα levels from the brain", "setting": "TNF-α", "result": "marked up-regulation"}, {"measurement": "bystander death of SMC treated EMT6 cells", "setting": "EMT6 cells [9]", "result": "led to EMT6 cell death directly"}, {"measurement": "tumor growth and survival, single agent", "setting": "EMT6 mammary tumors; mouse, in vivo", "result": "no bearing on tumor growth"}]}
